Counter-ions that a name gives are not always drawn.

Conditions in all cases: stereoisomer not certain
Data set [1] is described as follows: RP, Waters ACQUITY UPLC BEH C18, 100 × 1 mm, 1.7 µm, 50 °C, 0.3 mL/min, estimated dead time 0.17 min; A: water + 10 mM ammonium bicarbonate; B: 10% water + 90% methanol + 10 mM ammonium bicarbonate; gradient (min/%B) 0/0 15/100 21/100 22/0 30/0.
Data set [2] in a line: RP, Waters ACQUITY UPLC BEH C18, 100 × 1 mm, 1.7 µm, 50 °C, 0.3 mL/min, estimated dead time 0.17 min; A: water + 0.1% formic acid + 20 mM ammonium formate; B: methanol + 0.1% formic acid + 20 mM ammonium formate; gradient (min/%B) 0/0 15/100 21/100 22/0 30/0.
Data set [3] in a line: RP, Phenomenex Synergi Polar-RP, 100 × 3 mm, 2.5 µm, 40 °C, 0.4 mL/min, estimated dead time 1.1 min; A: water + 1 mM ammonium fluoride; B: methanol + 1 mM ammonium fluoride; C: acetonitrile; D: 50% isopropanol + 50% acetone; gradient (min/%B/%C/%D) 0/5/0/0 2/5/0/0 8/95/0/0 12/80/15/0 19/25/70/0 19.5/0/25/70 21.5/0/25/70 22.5/0/25/0 23/5/0/0.

In the case of `O=C(O)c1cc(Oc2ccc(Cl)cc2Cl)ccc1[N+](=O)[O-]` [Bifenox free acid], the LC retention time in data set [1] was 13.2 min; in data set [2] it was 14.3 min; in data set [3] it was 9.15 min.

For the compound `O=C1NS(=O)(=O)c2ccccc21` [Saccharin], the LC retention time in data set [1] was 4.9 min; in data set [2] it was 5.37 min; in data set [3], 3.01 min.

For `CCCCCCCCCCCCOS(=O)(=O)O` [Dodecyl sulfate], the values for the LC retention time in data set [1], in data set [2] and in data set [3] were 16.4 min, 16.2 min and 9.67 min, respectively.

Take `CC(C)C(=O)Nc1ccc([N+](=O)[O-])c(C(F)(F)F)c1` [Flutamide]: the values for the LC retention time in data set [1], in data set [2] and in data set [3] were 14.3 min, 14.1 min and 10.7 min, respectively.

Turning to `O=[N+]([O-])c1ccc(O)cc1` [4-Nitrophenol], the LC retention time is 3.3 min in data set [1], 9.08 min in data set [2] and 9.25 min in data set [3].

In the case of `O=C(O)CCC(=O)c1ccc(F)cc1` [4-Fluorobenzoylpropionic acid], the results for the LC retention time in data set [1], in data set [2] and in data set [3] were 7.83 min, 10.5 min and 8.54 min, respectively.

With `N#Cc1nn(-c2c(Cl)cc(C(F)(F)F)cc2Cl)c(N)c1SC(F)(F)F` [Fipronil sulfide], the figures for the LC retention time in data set [1], in data set [2] and in data set [3] were 15.8 min, 15.4 min and 11 min, respectively.

As for `CCCCCCCCCCCCc1ccccc1S(=O)(=O)O` [Dodecylbenzenesulfonic acid], the LC retention time in data set [1] was 17.5 min; in data set [2], 17.2 min; in data set [3], 10.1 min.

As for `O=S(=O)(O)NC1CCCCC1` [Cyclamate], the LC retention time in data set [1] is 6.33 min; in data set [2] it was 6.54 min; in data set [3] it was 2.74 min.

Regarding `CC1=CC(=O)NS(=O)(=O)O1` [Acesulfame], the LC retention time in data set [1] was 2.41 min; in data set [2] it was 2.66 min; in data set [3], 2.11 min.

With `CC(C)(c1cc(Br)c(O)c(Br)c1)c1cc(Br)c(O)c(Br)c1` [Tetrabromobisphenol A], the LC retention time in data set [1] was 14.6 min; in data set [2], 16.6 min; in data set [3], 11.7 min.

As to `Oc1cccc2ccccc12` [1-Naphthol], the LC retention time in data set [1] is 12.7 min; in data set [2], 12.5 min; in data set [3], 10 min.

On to `O=C(O)C(F)(F)C(F)(F)C(F)(F)C(F)(F)C(F)(F)F` [Perfluorohexanoic acid], for which the LC retention time was 12.7 min in data set [1], 12.7 min in data set [2] and 8.19 min in data set [3].

Turning to `O=C(Nc1ccc(Cl)c(Cl)c1)c1cc(Cl)cc(Cl)c1O` [Tetrachlorosalicylanilide], the values for the LC retention time in data set [1], in data set [2] and in data set [3] were 14.9 min, 17.7 min and 10.2 min, respectively.

Turning to `CC(C)N1C(=O)c2ccccc2NS1(=O)=O` [Bentazone], the values for the LC retention time in data set [1], in data set [2] and in data set [3] were 7.66 min, 11.5 min and 7.2 min, respectively.

Consider `N#Cc1nn(-c2c(Cl)cc(C(F)(F)F)cc2Cl)c(N)c1S(=O)(=O)C(F)(F)F` [Fipronil sulfone], for which the LC retention time in data set [1] is 16 min; in data set [2], 15.7 min; in data set [3], 11.1 min.

On to `Oc1c(Br)cc(Cl)cc1Cc1cc(Cl)cc(Br)c1O` [Bromochlorophen], for which the LC retention time in data set [1] is 16.4 min; in data set [2], 17.3 min; in data set [3], 11.2 min.

Turning to `CC(=O)Nc1ccc(O)c(C(=O)O)c1` [N-Acetyl mesalazine], the values for the LC retention time in data set [1], in data set [2] and in data set [3] were 4.58 min, 6.82 min and 2.92 min, respectively.

For `O=C(O)C(F)(F)C(F)(F)C(F)(F)F` [Perfluorobutanoic acid], the figures for the LC retention time in data set [1], in data set [2] and in data set [3] were 7.16 min, 7.57 min and 2.91 min, respectively.

For the compound `O=c1[nH]c2ccccc2s1` [2-hydroxybenzothiazole], the LC retention time in data set [1] was 10.5 min; in data set [2], 10.6 min; in data set [3] it was 9.61 min.

`COC(=O)c1ccc(O)cc1` [Methylparaben]: the LC retention time in data set [1] was 9.08 min; in data set [2] it was 9.98 min; in data set [3] it was 9.32 min.

In the case of `O=S(=O)(O)c1ccccc1` [Benzenesulfonic acid], the results for the LC retention time in data set [1], in data set [2] and in data set [3] were 2.77 min, 2.96 min and 2.01 min, respectively.

Turning to `CCC(C)c1cc([N+](=O)[O-])cc([N+](=O)[O-])c1O` (stereo not drawn) [Dinoseb], the LC retention time in data set [1] was 12.4 min; in data set [2] it was 15.5 min; in data set [3], 10 min.

With `O=C(O)C(F)(F)C(F)(F)C(F)(F)C(F)(F)C(F)(F)C(F)(F)F` [Perfluoroheptanoic acid], the LC retention time is 13.9 min in data set [1], 13.8 min in data set [2] and 11.3 min in data set [3].

Turning to `CCCOC(=O)c1ccc(O)cc1` [Propylparaben], the figures for the LC retention time in data set [1], in data set [2] and in data set [3] were 12.7 min, 12.9 min and 10.2 min, respectively.

On to `O=C(O)C(F)(F)C(F)(F)C(F)(F)C(F)(F)C(F)(F)C(F)(F)C(F)(F)F` [Perfluorooctanoic acid], for which the LC retention time is 14.8 min in data set [1], 14.7 min in data set [2] and 8.97 min in data set [3].
